Results on one compound are retold here after patent US5138035A, “Cyclopeptide derivatives usable as selective inhibitors with respect to proteases with active serine” (Centre National de la Recherche Scientifique, priority 1988, dated 1992).

*1 amine or outer side, *2 acyl side, *3 side chain or, on linkers, in order; H or OH if unused. Where a SMILES comes first, the peptide text is derived from it. [ ]: non-standard residue; d: D form. X3 = O=C(c1cc(N[*:1])ccc1CBr)[*:2]

Format in all cases: biochemical
The target in one experiment is elastase (Sus scrofa, UniProt P00772). As to the kind of experiment: Action on elastase (Examples 2 and 4). The following applies: species not given.
The target in the next experiment is human t-PA (Homo sapiens, UniProt P00750). As to the kind of experiment: Inactivation of human t-PA. As to conditions: 25° C., 0.05M Tris, 0.038M NaCl, 0.01% (v/v) Tween 80, pH 8.3, method b. The method, then: The inactivating or inhibiting properties of this derivative with respect to human t-PA are checked at 25° C. in a 0.05M Tris buffer, 0.038M NaCl, 0.01% (v/v) Tween 80 and pH 8.3.

The target in a further experiment is T1, bovine trypsin (Bos taurus, UniProt P00760).
T1 sequence (P00760 24-246): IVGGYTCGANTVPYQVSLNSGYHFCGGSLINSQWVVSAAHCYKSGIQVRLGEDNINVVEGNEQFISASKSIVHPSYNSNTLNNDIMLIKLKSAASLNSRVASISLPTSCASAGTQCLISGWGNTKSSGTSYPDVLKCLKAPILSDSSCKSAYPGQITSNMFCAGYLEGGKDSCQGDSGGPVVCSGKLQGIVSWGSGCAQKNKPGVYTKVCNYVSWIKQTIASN
In words: Inactivation of bovine trypsin (Hart and O'Brien / Kitz and Wilson kinetic methods). The following applies: 25° C., 0.1M Tris, 0.01M CaCl2, pH 7.2 (Example 14), method a (Hart and O'Brien) or b (Kitz and Wilson). The source says:
(§1) The properties of the cyclopeptide derivative of formula (XVI) are checked and in particular its capacity to inactivate bovine trypsin or human urokinase using the methods of Kitz and Wilson (for trypsin and urokinase) and the method of Hart and O'Brien (for trypsin), 1973, published in Biochemistry, 12, pp. 2940-2945.
(§2) The properties of the cyclopeptide derivative of formula (XXIII) are checked and in particular its capacity to inactivate bovine trypsin or human urokinase using the same methods as in Example 2 and working at 25° C. with the 0.025M sodium phosphate buffer, 0.1M NaCl, 0.05% (v/v) Tween 80 and at pH 7.5 for human urokinase.
(§3) The kinetic measurements were carried out at 25° C. in the following buffers: 0.1M Tris, 0.01M CaCl2, pH 7.2 (bovine trypsin); 0.025M sodium phosphate, 0.1M NaCl, 0.05% (v/v) Tween 80, pH 7.5 (human urokinase); 0.05M Tris, 0.038M NaCl, 0.01% (v/v) Tween 80, pH 8.3 (human t-PA), 0.1M Tris (porcine pancreatic elastase), 0.1M sodium phosphate, 25% (v/v) glycerol (human plasmin). […]

The target in the next experiment is human urokinase (Homo sapiens, UniProt P00749). As to the kind of experiment: Inactivation of human urokinase (Kitz and Wilson / Hart and O'Brien kinetic methods). The following applies: 25° C., 0.025M sodium phosphate, 0.1M NaCl, 0.05% (v/v) Tween 80, pH 7.5, method a and/or b.
Source text: as §1, §2, §3

Chain of human t-PA (P00750 36-562): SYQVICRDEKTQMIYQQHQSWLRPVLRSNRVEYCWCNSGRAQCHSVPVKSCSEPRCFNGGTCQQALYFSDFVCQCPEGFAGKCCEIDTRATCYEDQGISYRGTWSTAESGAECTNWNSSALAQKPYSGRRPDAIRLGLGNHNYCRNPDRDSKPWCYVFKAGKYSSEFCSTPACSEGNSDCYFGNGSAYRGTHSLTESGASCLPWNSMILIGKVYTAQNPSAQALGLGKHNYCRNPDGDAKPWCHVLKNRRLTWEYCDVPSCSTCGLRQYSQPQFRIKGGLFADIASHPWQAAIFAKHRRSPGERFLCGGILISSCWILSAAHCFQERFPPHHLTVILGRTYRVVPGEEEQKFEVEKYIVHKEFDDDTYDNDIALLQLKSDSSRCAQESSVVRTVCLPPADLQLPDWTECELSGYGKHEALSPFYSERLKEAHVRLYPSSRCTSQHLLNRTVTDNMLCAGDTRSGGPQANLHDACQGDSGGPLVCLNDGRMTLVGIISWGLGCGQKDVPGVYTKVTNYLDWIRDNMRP
Chain of elastase (P00772 27-266): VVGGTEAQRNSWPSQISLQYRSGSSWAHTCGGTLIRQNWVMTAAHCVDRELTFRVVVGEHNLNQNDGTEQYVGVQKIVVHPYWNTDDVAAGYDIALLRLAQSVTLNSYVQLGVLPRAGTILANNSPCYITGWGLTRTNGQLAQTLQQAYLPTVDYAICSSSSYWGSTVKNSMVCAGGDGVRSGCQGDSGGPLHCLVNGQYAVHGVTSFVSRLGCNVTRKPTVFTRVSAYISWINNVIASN

Take `N=C(N)NCCC[C@@H]1NC(=O)CNC(=O)CNC(=O)CNC(=O)CNC(=O)c2cc(ccc2CBr)NC1=O` [Compound (XXIII)] (cyclo(GGGGR[X3])): on elastase, the action on elastase result is listed as “no action”. Moreover, the “apparent inactivation constant ki/Ki” value at human t-PA amounted to 0.3 M⁻¹ s⁻¹; at bovine trypsin it was 150 M⁻¹ s⁻¹; at human urokinase, 165 M⁻¹ s⁻¹.
